Earlier results in patent US12590950B2, “Methods for predicting ER-mediated DNA damage” (UNIVERSITY OF MASSACHUSETTS, priority 2019, dated 2026).

What was measured:
[1] = target: T1, ER (Homo sapiens, UniProt P03372); parameters: host or cells: MCF-7; conditions: MCF-7, 1 μM; cited from earlier work
T1 sequence (P03372 1-595): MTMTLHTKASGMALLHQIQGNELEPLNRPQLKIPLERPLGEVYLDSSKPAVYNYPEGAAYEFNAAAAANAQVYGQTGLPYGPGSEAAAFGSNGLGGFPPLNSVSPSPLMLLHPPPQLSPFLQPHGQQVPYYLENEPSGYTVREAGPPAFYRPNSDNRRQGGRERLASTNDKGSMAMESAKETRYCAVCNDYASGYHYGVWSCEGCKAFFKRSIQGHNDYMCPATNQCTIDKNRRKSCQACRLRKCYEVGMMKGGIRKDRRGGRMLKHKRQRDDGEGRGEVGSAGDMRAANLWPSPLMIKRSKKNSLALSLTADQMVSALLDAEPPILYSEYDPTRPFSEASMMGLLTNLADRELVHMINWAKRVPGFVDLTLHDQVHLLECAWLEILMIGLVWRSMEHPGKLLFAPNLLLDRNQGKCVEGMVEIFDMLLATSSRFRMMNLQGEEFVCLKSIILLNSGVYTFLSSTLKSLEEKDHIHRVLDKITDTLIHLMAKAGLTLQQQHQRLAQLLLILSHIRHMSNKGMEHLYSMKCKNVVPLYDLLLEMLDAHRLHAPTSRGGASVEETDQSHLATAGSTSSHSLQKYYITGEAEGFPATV

[2] = also printed as 200 μg/L; cited from earlier work
[3] = test system: normal human keratin cell lines; conditions: cited from earlier work
[4] = target: T1, ER; conditions: 10 μM; cited from earlier work

Row | Structure (SMILES) | ER agonism in transactivation and proliferation assays [1] | serum level following exposure in women [2] | concentration inducing γH2AX foci [3] [µM] | induction of gene expression (ERE-CAT reporter) [4] [fold]
1 | COc1ccc(C(=O)c2ccccc2)c(O)c1 [BP3, 2-Hydroxy-4-methoxybenzophenone] | weak agonist | approximately 0.87 μM | 10 | –
2 | CCCOC(=O)c1ccc(O)cc1 [PP, propyl parahydroxybenzoate] | – | – | – | 1.3
